The source of these data is patent US20040057926A1, “Modulation of the immune response through the manipulation of arginine levels” (LSU Medical Center, priority 2002, published 2004).

Assay [1] has as its system 3LL lung carcinoma. The experiment in a line: Anti-tumor effect on 3LL lung carcinoma in C57Bl/6 mice. Type of assay: in vivo. The method, then:
The anti-tumor effect of arginase inhibitor Nor-NOHA was also measured on these tumor cells. C57Bl/6 mice were injected with one million 3LL lung carcinoma cells on the flank. […] Control mice received normal saline solution. Tumors were measured and the tumor volume was calculated in cubic […]. […] Materials and methods for this example were similar to those described in the above examples.

The subject of assay [2] is ASE. The experiment in a line: ASE activity assay (L-ornithine production) in PM lysates. Type of assay: biochemical, mice. As to conditions: NOHA 100 μM, Nor-NOHA 50 μM. The method, then:
Cell lysates from PM stimulated with IL-4+IL-13 or IFN-γ were tested for ASE activity by measuring the production of L-ornithine. In brief, cell lysates from PM stimulated with IL-4+IL-13 or IFN-γ in the presence or absence of NOHA or Nor-NOHA were added to 50 μl of Tris-HCl (50 mM; pH 7.5) containing 10 mM MnCl2. This mixture was heated at 55-60° C. for 10 min to activate ASE. The hydrolysis reaction from L-Arg to L-ornithine was identified by a colorimetric assay after the addition of ninhydrin solution and incubation at 37° C. for 1 h.

Assay [3] relates to peritoneal macrophages (PM). The assay is described as follows: Extra-cellular L-Arg concentration in supernatants of peritoneal macrophages (HPLC). Type of assay: cell-based, mice. The conditions noted are these: for extra-cellular L-Arg levels (mean of three experiments): L-Arg 2 mM, NOHA 100 μM, Nor-NOHA 50 μM. The method, then:
Jurkat T-cells, a CD4^+ cell line (Clone E6-1) (ATCC, Manassas, Va.) and normal stimulated T-cells were used to test the effect of ASE I, ASE II and iNOS produced by PM on CD3ζ expression. Six-week old female C57BL/6 mice were used to isolate peritoneal macrophages (PM). Briefly, 3 ml of thioglycolate-brewer (Becton Dickinson, San Jose, Calif.) were injected into the peritoneal cavity of mice for 3 days. Mice were then sacrificed and PM isolated by washing the peritoneum with HBSS. After 2 days of culture in RPMI with 4% fetal bovine serum, unattached cells were washed off and attached cells were used in co-cultures with Jurkat or normal T-cells.
(§1) PM were cultured in 6 well plates in RPMI containing 150 μM L-Arg and stimulated with murine rIL-4 (50 U/ml) and murine rIL-13 (50 ng/ml), or murine rIFN-γ (100 U/ml) for 24 hours. Then 1×10^6 normal T-cells stimulated with anti-CD3 plus anti-CD28 or 1×10^6 Jurkat cells, were cultured in the top chamber of a transwell system having 0.4 μm pores (Falcon, Franklin lakes, N.J.). CD3ζ expression was measured in Jurkat cells or T lymphocytes at different time points. PM were detached using trypsin/EDTA and the expression of protein and RNA for CAT-2B, ASE I, ASE II and iNOS was tested by western blot and northern blot respectively. Cytoplasmic extracts from PM were used to test ASE activity. Supernatants from stimulated PM were used to measure NO production using the Griess reagent method (Molecular Probes, Eugene, Oreg.). In addition, the extra-cellular concentration of L-Arg was tested in supernatants by HPLC (Dr. Gu Yao Wu laboratory, University of Texas) as described previously. O'Quinn, P. R., D. A. Knabe, and G. Wu. 2002. Arginine catabolism in lactating porcine mammary tissue. J Anim Sci. 80:467-474.

Assay [4] has as its system Jurkat cells. The experiment in a line: Co-culture in transwells of stimulated PM and Jurkat cells, CD3ζ expression. Type of assay: cell-based. As to the method:
as §1
Flow cytometry analysis was performed as previously described. Taheri, F., J. B. Ochoa, Z. Faghiri, K. Culotta, H. J. Park, M. S. Lan, A. H. Zea, and A. C. Ochoa. 2001. L-Arginine regulates the expression of the T-cell receptor zeta chain (CD3zeta) in Jurkat cells. Clin Cancer Res 7:958s-965s. Briefly, 5×10^5 Jurkat cells or T lymphocytes were washed once with Dulbecco phosphate-buffered saline 1× (D-PBS) and resuspended in 200 μL of D-PBS containing 1 μg of anti-CD3ε or isotype control. Cells were incubated for 15 min at 4° C., washed with D-PBS and resuspended in 200 μl D-PBS containing 500 μg/ml of digitonin plus 1 μg of anti-CD3ζ or 1 μg of isotypic control. Cells were incubated for 8 minutes after which they were washed and resuspended in 400 μl of D-PBS. Fluorescence acquisition and analysis were done using a Coulter-EPICS XL flow cytometer (Beckman-Coulter) with a 488 nm argon laser. The data were expressed as mean channel fluorescence intensity (MFI).

The subject of assay [5] is T lymphocytes. The experiment in a line: Co-culture in transwells of stimulated PM and stimulated normal T lymphocytes, CD3ζ expression. Type of assay: cell-based, human. As to the method: T-cells were isolated from mononuclear cells of healthy donors by T-cell enrichment columns (R&D Systems, Minneapolis, Minn.) according to manufacturer specifications. T-cell purity (CD3+) ranged between 89-95%. The cycle of internalization and re-expression of the TCR-CD3 complex was induced by T-cell stimulation with 1 μg/ml of anti-CD3, 100 ng/ml of anti-CD28 (Becton Dickinson) and 10 μg/ml of goat anti-mouse IgG (KPL, Gaithersburg, Md.). Cells were stimulated in the absence of L-Arg and added to the co-cultures 24 h after stimulation.
as §1
Flow cytometry analysis was performed as previously described. Taheri, F., J. B. Ochoa, Z. Faghiri, K. Culotta, H. J. Park, M. S. Lan, A. H. Zea, and A. C. Ochoa. 2001. […] Fluorescence acquisition and analysis were done using a Coulter-EPICS XL flow cytometer (Beckman-Coulter) with a 488 nm argon laser. The data were expressed as mean channel fluorescence intensity (MFI).

For assay [6], the system named is ASE I. The assay is described as follows: Western blot for ASE I in PM cytoplasmic extracts. Type of assay: cell-based, mice. The method, then:
Cytoplasmic extracts from PM, Jurkat cells or T lymphocytes were prepared as previously reported. Taheri, F., J. B. Ochoa, Z. Faghiri, K. Culotta, H. J. Park, M. S. Lan, A. H. Zea, and A. C. Ochoa. 2001. L-Arginine regulates the expression of the T-cell receptor zeta chain (CD3zeta) in Jurkat cells. Clin Cancer Res 7:958s-965s. Briefly, cells were resuspended in lysis buffer (50 mM HEPES, 150 mM NaCl, 5 mM EDTA, 1 mM NaOV4 and 0.5% Triton) containing 50 μg/ml of aprotinin, 50 μg/ml of leupeptin, 100 μg/ml of trypsin-chymotrypsin inhibitor and 2 mM PMSF. Lysates were centrifuged at 3000×g for 10 min at 4° C. Cytoplasmic extracts from Jurkat or T-cells were immunoblotted for CD3ζ and CD3ε. The expression ASE I, ASE II and iNOS was detected by immunoblot using PM extracts. GAPDH was used as housekeeping protein. Cytoplasmic extracts were electrophoresed in 12 or 8% Tris-Glycine gels (Novex, San Diego, Calif.), transferred to PVDF membranes and immunoblotted with the appropriate antibodies. The reactions were detected using the ECL kit (Amersham-Pharmacia).

Assay [7] relates to CAT-2B. The assay is described as follows: CAT-2B mRNA expression in PM (northern blot). It counts as cell-based, mice. The text has this: Anti-CD3ε-FITC, anti-CD3ζ-PE (Beckman-Coulter, Miami, Fla.) were used for flow cytometry. Mouse IgG1-FITC and mouse IgG1-PE (Beckman-Coulter) were used as isotype controls. Monoclonal antibodies against CD3ζ (Santa Cruz Biotechnologies, Santa Cruz, Calif.), CD3ε (DAKO, Carpinteria, Calif.), iNOS (Santa Cruz Biotechnologies), ASE I (Transduction-Becton Dickinson) and ASE II (a kind gift of Dr. Sidney Morris Jr) were used for western blots. To test the expression of CAT transporters mRNA, specific amplification products from RT-PCR of CAT-1, CAT-2A, CAT-2B and CAT-3 were purified from agarose gels and used as probes to detect CAT expression by northern blot. Murine full-length cDNA for glyceraldehyde-3 phosphate dehydrogenase (GAPDH) (1.6 Kb) (Clontech, Palo Alto, Calif.) was used as housekeeping control.
Two million PM stimulated with IL-4+IL-13 or IFN-γ were used for RNA extraction using lysis with TRIzol (Invitrogen-Gibco) following the manufacturer's specifications. Four micrograms of total RNA from each sample were electrophoresed under denaturing conditions, blotted onto nytran membranes (Schleicher & Schuell Inc, Keene, N.H.) and cross-linked by UV irradiation. Membranes were pre-hybridized at 42° C. in ULTRAhyb buffer (Ambion, Austin, Tex.) and hybridized overnight with 1×10^6 cpm/mL of ^32P-labeled probe. […]

For the molecule `N=C(NO)NCC[C@H](N)C(=O)O` [Nor-NOHA, N(omega)-hydroxy-nor-l-arginine], the “tumor growth (tumor volume)” value in assay [1] (20 or 40 mgs/kg subcutaneously, contralateral flank) is recorded as “significant arrest of tumor growth”. Also, the “tumor growth, comparison of doses” value in assay [1] (40 mgs/kg, the highest dose tested) is “most effective”. In addition, the “intracellular ASE activity” value in assay [2] is on record as “blocked intracellular ASE activity”. In addition, the “extra-cellular L-Arg levels (mean of three experiments)” value in assay [3] (Non-stimulated PM) is 109.8 µM; in assay [3] (PM stimulated with IL-4 + IL-13), 73.8 µM. Moreover, in assay [3] (PM stimulated with IL-4+IL-13), the “rapid decrease in the extra-cellular levels of L-Arg” value is recorded as “partially blocked the rapid decrease”. Further, the “CD3ζ in Jurkat cells co-cultured with PM stimulated with IL-4+IL-13” value in assay [4] (NOHA 100 μM, Nor-NOHA 50 μM, L-Arg 2 mM, L-NIL 5 μg/ml, catalase 200 U/ml, L-NMMA, L-NNA, L-NAME 1 mM) is on record as “prevented the decrease of CD3ζ”. In addition, the “CD3ζ in normal stimulated T lymphocytes co-cultured with IL-4+IL-13 activated PM” value in assay [5] is on record as “prevented the loss of CD3ζ”. In assay [6] (NOHA 100 μM, Nor-NOHA 50 μM), the “ASE I up regulation after IL-4+IL-13 stimulation” value is listed as “did not prevent ASE I up regulation”.

B1: IFN-γ: murine rIFN-γ (100 U/ml), Th1 cytokine used to stimulate PM (protein, UniProt P01580 23-155, looked up)
Interferon gamma: HGTVIESLESLNNYFNSSGIDVEEKSLFLDIWRNWQKDGDMKILQSQIISFYLRLFEVLKDNQAISNNISVIESHLITTFFSNSKAKKDAFMSIAKFEVNNPQVQRQAFNELIRVVHQLLPESSLRKRKRSRC
For B1, in assay [3] (similar to unstimulated PM), the “change of extra-cellular L-Arg by stimulated PM” value is “moderate decrease in L-Arg”. For the same molecule, the “CAT-2B mRNA expression in stimulated PM” value in assay [7] is given as “no increase in CAT-2B mRNA”. Also, the “expression of CD3ζ and CD3ε in Jurkat cells co-cultured with cytokine-stimulated PM” value in assay [4] (rIL-4 50 U/ml, rIL-13 50 ng/ml, rIFN-γ 100 U/ml) is “did not alter CD3ζ or CD3ε expression”. Besides, the “CD3ζ in stimulated T-cells co-cultured with cytokine-stimulated PM” value in assay [5] (transwells) was “normal cycle of internalization and re-expression of CD3ζ within 48 hours”. Moreover, the “ASE I expression in PM stimulated with cytokines” value in assay [6] (24 hours) is “decrease ASE I expression”.
